In US9193717B2, “Mineralocorticoid receptor antagonists” (Merck Sharp & Dohme Corp., priority 2011, dated 2015):
pIC50: −log10 of the molar value. Read-outs that look alike come from different tables or passages of the source.

Target: T1, full-length human Mineralocorticoid Receptor (MR) (Homo sapiens, UniProt P08235)
T1 construct: full-length human Mineralocorticoid Receptor (MR); host or cells: PathHunter CHO-K1 cells
T1 sequence (P08235 1-984): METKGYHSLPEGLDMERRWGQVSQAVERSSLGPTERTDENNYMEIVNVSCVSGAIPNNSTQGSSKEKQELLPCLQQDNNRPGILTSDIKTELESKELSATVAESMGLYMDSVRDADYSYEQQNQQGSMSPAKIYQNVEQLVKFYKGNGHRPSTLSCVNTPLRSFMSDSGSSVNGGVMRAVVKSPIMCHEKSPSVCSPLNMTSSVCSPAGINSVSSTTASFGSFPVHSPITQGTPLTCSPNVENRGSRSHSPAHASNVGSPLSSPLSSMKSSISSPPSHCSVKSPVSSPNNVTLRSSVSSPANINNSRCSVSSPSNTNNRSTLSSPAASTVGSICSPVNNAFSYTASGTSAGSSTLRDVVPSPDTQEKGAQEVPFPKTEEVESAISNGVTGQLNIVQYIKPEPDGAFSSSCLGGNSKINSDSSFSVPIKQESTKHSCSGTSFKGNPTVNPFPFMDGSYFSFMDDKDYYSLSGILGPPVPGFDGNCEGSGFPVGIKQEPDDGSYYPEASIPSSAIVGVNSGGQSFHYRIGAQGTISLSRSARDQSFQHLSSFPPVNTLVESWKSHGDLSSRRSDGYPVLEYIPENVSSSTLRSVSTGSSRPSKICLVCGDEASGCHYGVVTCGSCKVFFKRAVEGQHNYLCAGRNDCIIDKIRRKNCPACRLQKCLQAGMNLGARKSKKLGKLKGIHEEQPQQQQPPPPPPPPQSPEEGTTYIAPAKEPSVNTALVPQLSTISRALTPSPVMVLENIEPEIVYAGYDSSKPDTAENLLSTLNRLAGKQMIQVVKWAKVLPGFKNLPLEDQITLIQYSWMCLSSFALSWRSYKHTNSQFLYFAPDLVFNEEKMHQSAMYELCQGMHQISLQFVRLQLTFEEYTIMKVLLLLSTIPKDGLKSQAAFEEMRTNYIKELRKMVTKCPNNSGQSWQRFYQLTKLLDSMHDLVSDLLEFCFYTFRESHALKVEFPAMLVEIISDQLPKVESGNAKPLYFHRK
Assay: human MR NH Pro assay (PathHunter Protein:Protein interaction assay, MR antagonism)
Type: cell-based
Details: PathHunter CHO-K1 cells that overexpress human MR, aldosterone (0.3 nM), 6 hours at 37° C., antagonist mode
Description: The activity of the compounds of the present invention regarding mineralocorticoid receptor antagonism was evaluated using the following assay.
Assessment of Mr Potency in HMR NH Pro Assay
The human MR NH Pro assay is a commercially available PathHunter™ Protein:Protein interaction assay (DiscoveRx; http://www.discoverx.com/nhrs/prod-nhrs.php) that measures the ability of compounds to antagonize full-length human Mineralocorticoid Receptor (MR) binding to a coactivator peptide. PathHunter™ CHO—K1 cells that overexpress human MR (Cat #93-0456C2, Lot No: 09B0913) were cultured in growth media (F12K w/Glutamine and phenol red (Gibco 11765-047) supplemented with 10% HI FBS (Gibco 16000); 0.25 mg/ml Hygromycin in PBS (Invitrogen 10687-010, 50 mg/ml); 100 I.U./mL and 100 μg/mL Pen/Strep (Gibco 15140-122); 0.6 mg/mL Geneticin).
Compounds were assessed for MR antagonist activity by incubating the cells with a titrating dose of compound in F12K w/Glutamine and phenol red culture media (Invitrogen 11765-047) supplemented with 1% Charcoal/Dextran Treated FBS (Hyclone #SH30068.01) and aldosterone (0.3 nM) for 6 hours at 37° C. […] Growth Media: • F12K w/Glutamine and phenol red (Gibco 11765-047) • 10% HI FBS (Gibco 16000) • 0.25 mg/ml Hygromycin in PBS (Invitrogen 10687-010, 50 mg/ml) • 100 I.U./mL and 100 μg/mL Pen/Strep (Gibco 15140-122) • 0.6 mg/mL Geneticin (Gibco 10131, 50 mg/ml) • 2. Assay Media: • F12K w/Glutamine and phenol red (Invitrogen 11765-047) • 1% Charcoal/Dextran Treated FBS (Hyclone #SH30068.01) • 3. 3× PathHunter Detection Reagents (Cat#93-0001) (need ˜6 ml/plate). […] Control Agonist:Aldosterone:Sigma cat# A9477 • Prepare stock solution-10 μM in DMSO kept at −20° C. • for assay, dilute in assay media to 1.8 or 6 nM (6× of final concentration=about 0.3 nM to about 1.0 nM) • 5. Cell line: PathHunter CHO—K1 MR cells Cat #93-0456C2, Lot No: 09B0913, from operation liquid nitrogen stock. • 6. Control Antagonist:Spironolactone:Sigma #S-3378 and Eplerenone Sigma #107724-20-9 (10 mM stock concentration also prepared in DMSO and stored at −20° C.). • Methods: • Assay Set up and Calculations: • 1. Cells were grown in F12+FBS+Hygromycin+pen/strep+Genetin • 2. Cells were collected with 0.05% trypsin and the cell suspension was spun and resuspended in a volume of F12+1.5% CD-FBS and counted. • 3. The cells were resuspended to 4×10^5 cells/mL. • 4. Cells were (25 μL/well) added to the wells of a 384 well plate. • 5. The plate was then incubated at 37° C. over night in a humidified incubator with 5% CO2. • 6. Test compounds were titrated starting at 4.4 mM, 10-point titration in 1:3 dilution. • 7. Aldosterone was diluted in assay media to 1.8 nM or 6 nM from 10 μM stock (final concentration to be about 0.3 nM to about 1.0 nM). • Protocol for 384 Well Plate Format: 6 Hr Treatment: • 1. Plated 10K exponentially growing cells/well (25 μL) resuspended in assay media to each well using the Multidrop (Thermo Electron) (use white wall, clear bottom assay plates (Costar #3570) and incubate overnight at 37° C., 5% CO2. • 2. 0.25 μL 120× test compound (final DMSO concentration should be <1%) was added to each well n=2, 10 point titrations starting at 36.7 μM final concentration. • 3. 5 μL 6× agonist (final aldosterone concentration should be about 0.3 nM to about 1.0 nM) was added to all wells using the PlateMate Plus.
(ThermoFisher) (except those wells in columns 23 and 24) • 4. 5 μL of assay media was added to all wells in column 23 and 24. • 5. Plates were incubated 6 hrs at 37° C., 5% CO2. • 6. 15 μL 3× DiscoveRx detection reagent was added to each well. • 7. Plates were incubated for 1 hour at room temperature (plates stored in the dark). • 8. Plates were read on Envision (PerkinElmer) luminesence plate reader and analyzed using ADA.

Row | pIC50 (read-out: IC50 rating) | pIC50 (Table 3, read-out: IC50) | SMILES
1 | 6.30 to 7.00 | – | CNC(=O)c1ccc2[nH]c([C@@]3(Cc4ccccc4)OC(=O)N([C@H](C)c4ccc(F)cc4)C3=O)nc2c1 [Compound 21, Methyl 2-{(5R)-5-benzyl-3-[(1R)-1-(4-fluorophenyl)ethyl]-2,4-dioxo-1,3-oxazolidin-5-yl}-1H-benzimidazole-5-carboxamide]
2 | – | 5.70 to 6.30 | CCCCCC[C@@H](C)N1C(=O)O[C@](Cc2ccc(F)cc2)(c2nc3cc(NS(C)(=O)=O)ccc3[nH]2)C1=O [Example 41, N-(2-((R)-5-(4-fluorobenzyl)-3-((R)-octan-2-yl)-2,4-dioxooxazolidin-5-yl)-1H-benzo[d]imidazol-5-yl)methanesulfonamide]

The remaining lines, values behind:

Row | SMILES | pIC50 (read-out: IC50 rating) | pIC50 (Table 3, read-out: IC50)
3 | C[C@H](c1ccc(F)cc1)N1C(=O)O[C@](Cc2ccccc2)(c2nc3ccccc3[nH]2)C1=O [Compound 3, (5R)-5-(1H-Benzimidazol-2-yl)-5-benzyl-3-[(1R)-1-(4-fluorophenyl)ethyl]-1,3-oxazolidine-2,4-dione] | 6.30 to 7.00 | –
4 | C[C@H](c1ccc(F)cc1)N1C(=O)O[C@](Cc2ccccc2)(c2nc3c(Cl)cc(Cl)cc3[nH]2)C1=O [Compound 19, (5R)-5-Benzyl-5-(4,6-dichloro-1H-benzimidazol-2-yl)-3-[(1R)-1-(4-fluorophenyl)ethyl]-1,3-oxazolidine-2,4-dione] | > 7.00 | –
5 | O=C1O[C@](Cc2ccccc2)(c2nc3ccc(Cl)cc3[nH]2)C(=O)N1[C@@H]1CCc2ccccc21 [Compound 13, (5R)-5-Benzyl-5-(5-chloro-1H-benzimidazol-2-yl)-3-[(1R)-2,3-dihydro-1H-inden-1-yl]-1,3-oxazolidine-2,4-dione] | 6.30 to 7.00 | –
